Laboratory results from patent US7709507B2 (Allergan, Inc., priority 2006, dated 2010).

Key:
Format in all cases: cell-based
alpha2C receptor = target: T1, alpha2C receptor (Homo sapiens, UniProt P18825); experiment: Receptor Selection and Amplification Technology (RSAT) assay, Alpha 2C; conditions: RSAT, transfected NIH-3T3 cells with Gq/i5; not active = at concentrations less than 10 micromolar
T1 construct: expressed in transfected cells; host or cells: NIH-3T3 cells
T1 sequence (P18825 1-462): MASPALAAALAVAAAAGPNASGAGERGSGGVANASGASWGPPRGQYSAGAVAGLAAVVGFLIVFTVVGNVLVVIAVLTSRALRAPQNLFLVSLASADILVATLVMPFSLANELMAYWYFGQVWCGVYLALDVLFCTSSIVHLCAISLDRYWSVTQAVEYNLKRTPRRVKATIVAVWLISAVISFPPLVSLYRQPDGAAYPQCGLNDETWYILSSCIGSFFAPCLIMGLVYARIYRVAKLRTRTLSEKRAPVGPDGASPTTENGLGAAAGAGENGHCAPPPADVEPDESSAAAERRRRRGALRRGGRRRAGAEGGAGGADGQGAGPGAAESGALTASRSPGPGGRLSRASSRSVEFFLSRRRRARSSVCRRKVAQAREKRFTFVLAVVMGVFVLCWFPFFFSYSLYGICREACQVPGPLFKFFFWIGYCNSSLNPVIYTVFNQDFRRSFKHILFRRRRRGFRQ
Description: (§1) Receptor Selection and Amplification Technology (RSAT) Assay
(§2) The RSAT assay measures a receptor-mediated loss of contact inhibition that results in selective proliferation of receptor-containing cells in a mixed population of confluent cells. The increase in cell number is assessed with an appropriate transfected marker gene such as β-galactosidase, the activity of which can be easily measured in a 96-well format. Receptors that activate the G protein, Gq, elicit this response. Alpha2 receptors, which normally couple to Gi, activate the RSAT response when coexpressed with a hybrid Gq protein that has a Gi receptor recognition domain, called Gq/i5.
(§3) NIH-3T3 cells are plated at a density of 2×10^6 cells in 15 cm dishes and maintained in Dulbecco's modified Eagle's medium supplemented with 10% calf serum. One day later, cells are cotransfected by calcium phosphate precipitation with mammalian expression plasmids encoding p-SV-β-galactosidase (5-10 μg), receptor (1-2 μg) and G protein (1-2 μg). 40 μg salmon sperm DNA may also be included in the transfection mixture. […] Cells are thawed and 100 μl added to 100 μl aliquots of various concentrations of drugs in triplicate in 96-well dishes. Incubations continue 72-96 hr at 37° C. After washing with phosphate-buffered saline, β-galactosidase enzyme activity is determined by adding 200 μl of the chromogenic substrate (consisting of 3.5 mM o-nitrophenyl-β-D-galactopyranoside and 0.5% nonidet P-40 in phosphate buffered saline), incubating overnight at 30° C. and measuring optical density at 420 nm. The absorbance is a measure of enzyme activity, which depends on cell number and reflects a receptor-mediated cell proliferation. The efficacy or intrinsic activity is calculated as a ratio of the maximal effect of the drug to the maximal effect of a standard full agonist for each receptor subtype. Brimonidine, also called UK14304, the chemical structure of which is shown below, is used as the standard agonist for the alpha2A, alpha2B and alpha2C receptors. The EC50 is the concentration at which the drug effect is half of its maximal effect.
(§4) EC50 values are nanomolar. NA stands for “not active” at concentrations less than 10 micromolar. IA stands for “intrinsic activity.”

alpha2B receptor = target: T2, alpha2B receptor (Homo sapiens, UniProt P18089); experiment: Receptor Selection and Amplification Technology (RSAT) assay, Alpha 2B; conditions: for EC50: RSAT, transfected NIH-3T3 cells with Gq/i5, not active = at concentrations less than 10 micromolar, read-out: Alpha 2B EC50; for Alpha 2B IA (intrinsic activity): ratio of maximal effect to that of standard full agonist brimonidine (UK14304)
T2 construct: expressed in transfected cells; host or cells: NIH-3T3 cells
T2 sequence (P18089 1-450): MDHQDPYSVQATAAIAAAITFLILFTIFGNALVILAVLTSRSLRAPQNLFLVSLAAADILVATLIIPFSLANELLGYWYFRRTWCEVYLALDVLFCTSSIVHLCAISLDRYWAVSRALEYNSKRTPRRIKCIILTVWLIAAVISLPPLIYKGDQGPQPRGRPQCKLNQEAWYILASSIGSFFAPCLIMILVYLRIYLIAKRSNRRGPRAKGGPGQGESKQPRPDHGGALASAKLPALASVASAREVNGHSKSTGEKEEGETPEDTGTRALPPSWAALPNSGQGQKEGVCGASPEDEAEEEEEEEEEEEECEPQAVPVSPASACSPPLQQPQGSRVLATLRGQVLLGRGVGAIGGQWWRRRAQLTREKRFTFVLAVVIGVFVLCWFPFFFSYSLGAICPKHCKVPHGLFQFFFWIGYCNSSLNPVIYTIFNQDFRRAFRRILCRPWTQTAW
Description: as §1, §2
NIH-3T3 cells are plated at a density of 2×10^6 cells in 15 cm dishes and maintained in Dulbecco's modified Eagle's medium supplemented with 10% calf serum. One day later, cells are cotransfected by calcium phosphate precipitation with mammalian expression plasmids encoding p-SV-β-galactosidase (5-10 μg), receptor (1-2 μg) and G protein (1-2 μg). 40 μg salmon sperm DNA may also be included in the transfection mixture. Fresh media is added on the following day and 1-2 days later, cells are harvested and frozen in 50 assay aliquots. Cells are thawed and 100 μl added to 100 μl aliquots of various concentrations of drugs in triplicate in 96-well dishes. Incubations continue 72-96 hr at 37° C. After washing with phosphate-buffered saline, β-galactosidase enzyme activity is determined by adding 200 μl of the chromogenic substrate (consisting of 3.5 mM o-nitrophenyl-β-D-galactopyranoside and 0.5% nonidet P-40 in phosphate buffered saline), incubating overnight at 30° C. and measuring optical density at 420 nm. The absorbance is a measure of enzyme activity, which depends on cell number and reflects a receptor-mediated cell proliferation. The efficacy or intrinsic activity is calculated as a ratio of the maximal effect of the drug to the maximal effect of a standard full agonist for each receptor subtype. Brimonidine, also called UK14304, the chemical structure of which is shown below, is used as the standard agonist for the alpha2A, alpha2B and alpha2C receptors. The EC50 is the concentration at which the drug effect is half of its maximal effect.
The results of the RSAT assay with several exemplary compounds of the invention are disclosed in Table 1 above together with the chemical formulas of these exemplary compounds. EC50 values are nanomolar. NA stands for “not active” at concentrations less than 10 micromolar. IA stands for “intrinsic activity.”

alpha2A receptor = target: T3, alpha2A receptor (Homo sapiens, UniProt P08913); experiment: Receptor Selection and Amplification Technology (RSAT) assay, Alpha 2A; conditions: for EC50 / Alpha 2A EC50: RSAT, transfected NIH-3T3 cells with Gq/i5, not active = at concentrations less than 10 micromolar; for EC50: read-out: Alpha 2A EC50; for Alpha 2A IA (intrinsic activity): ratio of maximal effect to that of standard full agonist brimonidine (UK14304)
T3 construct: expressed in transfected cells; host or cells: NIH-3T3 cells
T3 sequence (P08913 1-465): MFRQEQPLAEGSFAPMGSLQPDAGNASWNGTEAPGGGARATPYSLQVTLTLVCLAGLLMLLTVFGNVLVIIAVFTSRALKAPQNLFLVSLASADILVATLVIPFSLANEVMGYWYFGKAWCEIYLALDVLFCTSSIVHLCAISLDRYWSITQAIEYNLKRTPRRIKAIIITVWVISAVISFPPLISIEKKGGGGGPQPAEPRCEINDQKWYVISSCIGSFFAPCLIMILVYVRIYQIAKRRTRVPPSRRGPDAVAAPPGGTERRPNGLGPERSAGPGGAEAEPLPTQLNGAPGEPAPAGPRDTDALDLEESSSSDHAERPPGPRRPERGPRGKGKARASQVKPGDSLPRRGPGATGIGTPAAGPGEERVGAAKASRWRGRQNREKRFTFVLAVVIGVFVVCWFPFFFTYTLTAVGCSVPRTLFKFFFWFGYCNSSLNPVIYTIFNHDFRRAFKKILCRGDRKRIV
Description: as §1, §2, §3, §4

Row | SMILES | Alpha 2C EC50 (alpha2C receptor) | EC50 (alpha2B receptor) [nM] | Alpha 2B IA (intrinsic activity) (alpha2B receptor) | EC50 (alpha2A receptor) [nM] | Alpha 2A IA (intrinsic activity) (alpha2A receptor) | Alpha 2A EC50 (alpha2A receptor)
1 | O=C(NCCF)NC(Cc1ccncc1)c1cccc(Cl)c1 (stereo not shown) [1-[1-(3-chloro-phenyl)-2-pyridin-4-yl-ethyl]-3-(2-fluoro-ethyl)-urea] | not active | 30.7 | 1.32 | 368 | 0.57 | –
2 | Cc1cccc(C(Cc2cc(F)ccc2F)NC(=O)NCCF)c1 (stereo not shown) [1-[2-(2,5-difluoro-phenyl)-1-m-tolyl-ethyl]-3-(2-fluoro-ethyl)-urea] | not active | 21.3 | 1.02 | – | – | not active
3 | O=C(NCCF)NC(Cc1cc(F)ccc1F)c1cccnc1 (stereo not shown) [1-[2-(2,5-difluoro-phenyl)-1-pyridin-3-yl-ethyl]-3-(2-fluoro-ethyl)-urea] | not active | 611 | 1.02 | – | – | not active
4 | O=C(NCCF)NC(Cc1ccc(F)c(F)c1)c1ccncc1 (stereo not shown) [1-[2-(3,4-difluoro-phenyl)-1-pyridin-4-yl-ethyl]-3-(2-fluoro-ethyl)-urea] | not active | 3620 | 0.44 | – | – | not active
5 | O=C(NCCF)NC(Cc1cccc(F)c1)c1ccccc1 (stereo not shown) [N-(2-fluoroethyl)-N′-[2-(3-fluorophenyl)-1-phenylethyl]urea] | not active | 26 | 0.95 | – | – | not active

The next lines start with the values.

Row | Alpha 2C EC50 (alpha2C receptor) | EC50 (alpha2B receptor) [nM] | Alpha 2B IA (intrinsic activity) (alpha2B receptor) | EC50 (alpha2A receptor) [nM] | Alpha 2A IA (intrinsic activity) (alpha2A receptor) | Alpha 2A EC50 (alpha2A receptor) | SMILES
6 | not active | 5.99 | 0.9 | 70.4 | 0.35 | – | Cc1cccc(CC(NC(=O)NCCF)c2cccc(Cl)c2)c1 (stereo not shown) [1-[1-(3-chloro-phenyl)-2-m-tolyl-ethyl]-3-(2-fluoro-ethyl)-urea]
7 | not active | 20.5 | 1.02 | – | – | not active | Cc1cccc(C(Cc2cccc(F)c2F)NC(=O)NCCF)c1 (stereo not shown) [1-[2-(2,3-difluoro-phenyl)-1-m-tolyl-ethyl]-3-(2-fluoro-ethyl)-urea]
8 | not active | 29.8 | 0.91 | – | – | not active | Cc1cccc(C(Cc2ccccc2)NC(=O)NCCF)c1 (stereo not shown) [drawing 72, 1-(2-fluoroethyl)-3-[1-(3-methylphenyl)-2-phenylethyl]urea]
